Experimental data from ChEMBL document CHEMBL1201862, “PubChem BioAssay data set” (2004).
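Values below derive from 48-hour exposures of cells grown in 96-well plates, with endpoints linearly interpolated between the two concentrations bracketing the appropriate inhibition level. The concentration for 50% growth inhibition is given as GI50.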 Activity calls are given as the source filed them. Cut-off read from the data, not from the text of the source: active = GI50 up to about 1.1 µM and inactive = higher. *1 amine or outer side, *2 acyl side, *3 side chain or, on linkers, in order; H or OH if unused. Where a SMILES comes first, the peptide text is derived from it. [ ]: non-standard residue; d: D form. The star is where a group is joined. ξ: configuration not given here. X43 = CCC(=O)CC(O)CC(C)CC(N[*:1])C(=O)[*:2]; ξLeu(3ξ-OH) = CC(C)C(O)C(N)C(=O)O; ξPro(4ξ-Me) = CC1CNC(C(=O)O)C1; X42 = CCC(C)/C=C/C(=O)*; Aib = CC(C)(N)C(=O)O; X44 = CC(CN(C)C)N*; βAla = NCCC(=O)O

Columns and labels:
Assay in all cases: NCI-60 cell line screen, 48 h
[1] = test system: COLO 205
[2] = test system: MCF7
[3] = test system: MDA-N
[4] = test system: TK-10
[5] = test system: MOLT-4
[6] = test system: UACC-62
[7] = test system: OVCAR-4
[8] = test system: HOP-92
[9] = test system: HCT-116
[10] = test system: SK-MEL-5
[11] = test system: U-251
[12] = test system: SK-OV-3
[13] = test system: CAKI-1
[14] = test system: PC-3
[15] = test system: M14
[16] = test system: DU-145
[17] = test system: K562
[18] = test system: MDA-MB-435
[19] = test system: UO-31
[20] = test system: MDA-MB-231
[21] = test system: EKVX
[22] = test system: CCRF-CEM
[23] = test system: HCC 2998
[24] = test system: BT-549
[25] = test system: SR
[26] = test system: OVCAR-8
[27] = test system: IGROV-1
[28] = test system: RXF 393
[29] = test system: NCI-H23
[30] = test system: A549
[31] = test system: SNB-19
[32] = test system: Malme-3M
[33] = test system: ACHN
[34] = test system: SF-268
[35] = test system: SW-620
[36] = test system: Hs-578T
[37] = test system: LOX IMVI
[38] = test system: A498
[39] = test system: HL-60
[40] = test system: UACC-257
[41] = test system: SK-MEL-28
[42] = test system: NCI/ADR-RES
[43] = test system: OVCAR-5
[44] = test system: NCI-H460
[45] = test system: HOP-62
[46] = test system: 786-0
[47] = test system: SF-539
[48] = test system: HCT-15
[49] = test system: SN12C
[50] = test system: SK-MEL-2
[51] = test system: OVCAR-3
[52] = test system: HT-29
[53] = test system: RPMI-8226
[54] = test system: T47D
[55] = test system: KM12
[56] = test system: NCI-H522
[57] = test system: NCI-H226
[58] = test system: SF-295
[59] = test system: SNB-75

## CCC(=O)CC(O)CC(C)CC(NC(=O)C1CC(C)CN1C(=O)/C=C/C(C)CC)C(=O)NC(C(=O)NC(C)(C)C(=O)NC(CC(C)C)C(=O)NC(CC(C)C)C(=O)NC(C)(C)C(=O)NC(C)(C)C(=O)NCCC(=O)NC(C)CN(C)C)C(O)C(C)C (stereo not drawn) (X42-[ξPro(4ξ-Me)][X43][ξLeu(3ξ-OH)][Aib]LL[Aib][Aib][βAla]-X44; configuration not given here)
[1]
  GI50: 0.0131 µM (active)
[2]
  GI50: < 0.005 µM (active)
[3]
  GI50: 0.0818 µM (active)
[4]
  GI50: 0.345 µM (active)
[5]
  GI50: 0.00887 µM (active)
[6]
  GI50: 0.268 µM (active)
[7]
  GI50: 0.0361 µM (active)
[8]
  GI50: 0.0887 µM (active)
[9]
  GI50: 0.0235 µM (active)
[10]
  GI50: < 0.005 µM (active)
[11]
  GI50: < 0.005 µM (active)
[12]
  GI50: 0.341 µM (active)
[13]
  GI50: 1.19 µM (inactive)
[14]
  GI50: 0.00632 µM (active)
[15]
  GI50: 0.615 µM (active)
[16]
  GI50: 0.351 µM (active)
[17]
  GI50: 0.0469 µM (active)
[18]
  GI50: 0.0745 µM (active)
[19]
  GI50: 5.87 µM (inactive)
[20]
  GI50: 0.133 µM (active)
[21]
  GI50: < 0.005 µM (active)
[22]
  GI50: < 0.005 µM (active)
[23]
  GI50: 0.153 µM (active)
[24]
  GI50: 0.29 µM (active)
[25]
  GI50: 0.028 µM (active)
[26]
  GI50: < 0.005 µM (active)
[27]
  GI50: 0.0746 µM (active)
[28]
  GI50: 0.38 µM (active)
[29]
  GI50: < 0.005 µM (active)
[30]
  GI50: < 0.005 µM (active)
[31]
  GI50: 0.0115 µM (active)
[32]
  GI50: 0.133 µM (active)
[33]
  GI50: 0.611 µM (active)
[34]
  GI50: 0.0526 µM (active)
[35]
  GI50: 0.143 µM (active)
[36]
  GI50: 0.0132 µM (active)
[37]
  GI50: 0.199 µM (active)
[38]
  GI50: 0.495 µM (active)
[39]
  GI50: 0.00951 µM (active)
[40]
  GI50: < 0.005 µM (active)
[41]
  GI50: 0.362 µM (active)
[42]
  GI50: 7.08 µM (inactive)
[43]
  GI50: 0.313 µM (active)
[44]
  GI50: 0.0374 µM (active)
[45]
  GI50: 0.151 µM (active)
[46]
  GI50: 1.52 µM (inactive)
[47]
  GI50: 0.292 µM (active)
[48]
  GI50: 5.4 µM
[49]
  GI50: 0.261 µM (active)
[50]
  GI50: 0.12 µM (active)
[51]
  GI50: 0.0074 µM (active)
[52]
  GI50: 0.0728 µM (active)
[53]
  GI50: 0.0218 µM (active)
[54]
  GI50: < 0.005 µM (active)
[55]
  GI50: 0.0412 µM (active)
[56]
  GI50: < 0.005 µM (active)
[57]
  GI50: < 0.005 µM (active)
[58]
  GI50: 0.0255 µM (active)
[59]
  GI50: 0.0165 µM (active)

## CN(CC(N)=O)C(=O)N(CCCl)N=O [SARCNU]
[1]
  GI50: > 100 µM (inactive)
[2]
  GI50: > 100 µM (inactive)
[3]
  GI50: > 100 µM (inactive)
[4]
  GI50: > 100 µM (inactive)
[5]
  GI50: > 100 µM (inactive)
[6]
  GI50: > 56.4 µM (inactive)
[7]
  GI50: > 100 µM (inactive)
[8]
  GI50: > 77.6 µM (inactive)
[9]
  GI50: > 100 µM (inactive)
[10]
  GI50: > 100 µM (inactive)
[11]
  GI50: > 100 µM (inactive)
[12]
  GI50: > 83.9 µM (inactive)
[13]
  GI50: > 100 µM (inactive)
[14]
  GI50: > 100 µM (inactive)
[15]
  GI50: > 100 µM (inactive)
[16]
  GI50: > 100 µM (inactive)
[17]
  GI50: > 100 µM (inactive)
[18]
  GI50: > 100 µM (inactive)
[19]
  GI50: > 100 µM (inactive)
[20]
  GI50: > 100 µM (inactive)
[21]
  GI50: > 100 µM (inactive)
[22]
  GI50: > 81.8 µM (inactive)
[23]
  GI50: > 100 µM (inactive)
[24]
  GI50: > 100 µM (inactive)
[25]
  GI50: > 71.1 µM (inactive)
[26]
  GI50: > 100 µM (inactive)
[27]
  GI50: > 100 µM (inactive)
[28]
  GI50: > 100 µM (inactive)
[29]
  GI50: > 100 µM (inactive)
[30]
  GI50: > 100 µM (inactive)
[31]
  GI50: > 83.9 µM (inactive)
[32]
  GI50: > 100 µM (inactive)
[33]
  GI50: > 100 µM (inactive)
[34]
  GI50: 27.2 µM (inactive)
[35]
  GI50: > 100 µM (inactive)
[36]
  GI50: > 100 µM (inactive)
[37]
  GI50: > 100 µM (inactive)
[38]
  GI50: > 100 µM (inactive)
[39]
  GI50: > 100 µM (inactive)
[40]
  GI50: > 100 µM (inactive)
[41]
  GI50: > 100 µM (inactive)
[42]
  GI50: > 100 µM (inactive)
[43]
  GI50: > 100 µM (inactive)
[44]
  GI50: 41.1 µM (inactive)
[45]
  GI50: > 100 µM (inactive)
[46]
  GI50: 98.4 µM (inactive)
[47]
  GI50: 38.3 µM (inactive)
[48]
  GI50: > 100 µM
[49]
  GI50: > 100 µM (inactive)
[50]
  GI50: > 100 µM (inactive)
[51]
  GI50: > 100 µM (inactive)
[52]
  GI50: > 100 µM (inactive)
[53]
  GI50: > 100 µM (inactive)
[54]
  GI50: > 100 µM (inactive)
[55]
  GI50: > 100 µM (inactive)
[56]
  GI50: > 100 µM (inactive)
[57]
  GI50: 67.9 µM (inactive)
[58]
  GI50: > 76.7 µM (inactive)
[59]
  GI50: 38.6 µM (inactive)
